We go through two molecules from patent US20060111289A1, “Compositions and methods of using Alpha-fetoprotein growth inhibitory peptides” (Serometrix, LLC,, priority 2004, published 2006).

Where a SMILES comes first, the peptide text is derived from it.

Assay [1] concerns cell cycle gene mRNA in MCF-7 cells. Briefly: Quantitative RT-PCR of cell cycle gene mRNA in MCF-7 cells. The settings on record: for Cyclin E1 mRNA levels, Fold Decrease: eight day treatment. The assay is classed as cell-based, human. As for the experimental part: MCF-7 cell cultures grown in charcoal-stripped medium for 24 hours were seeded in 6-well plates and allowed to attach for 24 hours before treatment with 1×10^−7M of the cyclic, linear, or scrambled peptide, or a vehicle control for either 24 or 48 hours. Total RNA was isolated using TriReagent (Molecular Research Center Inc.) and quantified using the Genequant Pro (Ambersham Biosciences).
Standard curves for each primer were prepared and RNA samples were reverse transcribed and screened for the genes of interest using the One Step RT-PCR kit (Qiagen Inc.) in the Roche Light Cycler. Each sample was run in duplicate, and the entire experiment was replicated resulting in two independent samples for each treatment.
MCF-7 cell cultures were maintained in medium with charcoal-stripped bovine serum for 24 hours prior to seeding in 6-well plates. Seeding densities varied with treatment time and were aimed at obtaining 80% confluent cell cultures at the time of harvesting; after 24, 48, or 72 hours of treatment. RNA isolation was performed as above.
MCF-7 cell cultures were maintained as above and seeded in 6-well plates at a low seeding density to obtain cell cultures that were 80% confluent at the end of the treatment. Cell cultures were treated with various concentrations of the cyclic peptide 24 hours after seeding and then every two days until harvesting the cells at day eight post-treatment RNA was isolated from each treatment.
MCF-7 cells were seeded in DC5 medium into each well of two 6-well plates and allowed to attach for 24 hours at which point the seeding medium was exchanged for serum-free medium for 24 hours. After 24 hours in serum-free medium the cells were re-fed with DC5-stripped medium containing either the vehicle control (DMSO) or GIP (from 1×10^−14 to 1×10^−5 M). Cells were re-fed every 48 hours until they were harvested after eight days of treatment and RNA was isolated. The entire procedure was repeated resulting in two independent RNA isolations. The quantity and quality of RNA isolated from each eight-day exposure for each of the concentrations are shown below. The quantity and quality of RNA obtained from these exposures is sufficient to determine the RNA expression levels of numerous genes.
MCF-7 cells were seeded at 1×10^6 cells per well in 6-well plates. The cells were incubated for 192 h in medium containing charcoal/dextran-treated BCS and test compounds described above in the proliferation assay. Peptide was administered each day for 8 days. Total RNA was isolated using the RNAqueous 4 PCR kit (Ambion Inc.) or Tri Reagent (Molecular Research Center, Inc.). The quality of the RNAs were assessed by electrophoresis on denaturing agarose gels and were quantified at 260 nm with the Genequant Pro (Amersham Biosciences).
Details for the quantitative RT-PCR protocol were previously reported. Fasco et al., “Quantitative RNA-polymerase chain reaction-DNA analysis by capillary electrophoresis and laser-induced fluorescence” Anal. Biochem. 224:140-147 (1995). Briefly, RNA samples were reverse transcribed and amplified using the One Step RT-PCR kit (Qiagen Inc.) in the Roche Light Cycler. Total RNA was diluted to […] for all genes assayed except for 28S, which was diluted to 0.001 mg/ml. Diluted total RNA ([…]) was incubated with Qiagen RT-PCR master mix and was reverse transcribed for 30 min at 50° C. Following reverse transcription, samples were heated for 15 min at 95° C. to activate the HotStarTaq DNA polymerase and to simultaneously inactivate the reverse transcriptase. Gozgit et al., “Differential action of polycyclic aromatic hydrocarbons on endogenous estrogen-responsive genes and on a transfected estrogen-responsive reporter in MCF-7 cells” Toxicol. & Appl. Pharmacol. 196:58-67 (2004).
Gene-specific primers ([…]) were used for the following: Cyclin D3, D1, CDK2, CDK4, CDK6, RB1, Ki67, Cyclin E1, Cyclin BI, and with B-Actin serving as housekeeping (control) gene. […]

A further assay concerns human platelets. Briefly: Platelet aggregation in human platelet-rich plasma. The format is cell-based. Further details: % Inhibition Of Activity: Platelet Agg. ADP / % Inhibition Of Activity: Platelet Agg. AA / % Inhibition Of Activity: Platelet Agg. Coll: concentration or dose not given beside the values. As for the experimental part:
FIG. 9 presents exemplary data showing platelet aggregation modulation using 0.5 ml of normal human platelet-rich plasma (PRP) with varying amounts of P149 or P 149b using 2.5×10^6 platelets per reaction vessel.
FIG. 10 presents exemplary data showing platelet aggregation activation by arachidonic acid (AA) and collagen using P149-treated platelet suspensions • Panel A1: AA alone; • Panel A2: AA followed by epinephine (EPI) and EPI alone using P149b; • Panel A3: CD62P flow cytometry fluorescence quenching by P149; • Panel B1: collagen alone and collagen+P149; • Panel B2: collagen alone; collagen+P149a showing aggregation diminution.
GIP-derived peptide fragments and/or subfragments have been assayed for platelet aggregation by measuring light transmissions with an aggregometer using a stirred human platelet suspension. Kinlough-Rathbone et al., In: Platelet Aggregation in Measurements of Platelet Function, Eds. Harker L A, Zimmerman T S., Churchill Livingstone, London. pp. 64-87 (1983); and Whittle et al., “Specificity between the anti-aggregatory actions of prostacyclin, prostaglandin Eland D2 on platelets” In: Mechanisms of stimulus—response coupling in platelets, Eds. V. V. K., MacIntyre D E, Scully M F., New York and London: Plenum Press. pp. 109-115 (1985).
The ability of GIP and its fragments were individually examined for aggregation inhibition using citrated human platelet-rich plasma (PRP). The peptides were freshly dissolved in 0.15 M NaCl containing 2.5×10^6 platelets/ml. […]

Assay [2] relates to human kidney tumor cell line.

Regarding `CC[C@H](C)[C@H](NC(=O)[C@@H]1CSSC[C@H](NC(=O)[C@H](C)NC(=O)[C@H](CC(C)C)NC(=O)[C@H](CC(C)C)NC(=O)[C@H](CCCCN)NC(=O)[C@H](CC(=O)O)NC(=O)[C@H](CCC(=O)O)NC(=O)[C@H](CO)NC(=O)[C@@H](N)CC(C)C)C(=O)NCC(=O)N[C@@H](CCC(=O)O)C(=O)NCC(=O)N[C@@H](C)C(=O)N[C@@H](C)C(=O)N[C@@H](CC(=O)O)C(=O)N[C@@H]([C@@H](C)CC)C(=O)N[C@@H]([C@@H](C)CC)C(=O)N[C@@H]([C@@H](C)CC)C(=O)NCC(=O)N[C@@H](Cc2c[nH]cn2)C(=O)N[C@@H](CC(C)C)C(=O)N1)C(=O)N[C@@H](CCCNC(=N)N)C(=O)N[C@@H](Cc1c[nH]cn1)C(=O)N[C@@H](CCC(=O)O)C(=O)N[C@@H](CCSC)C(=O)N[C@H](C(=O)N1CCC[C@H]1C(=O)N[C@H](C(=O)N[C@@H](CC(N)=O)C(=O)N1CCC[C@H]1C(=O)NCC(=O)N[C@H](C(=O)O)C(C)C)C(C)C)[C@@H](C)O` [Cyclic GIP] (HELM PEPTIDE1{L.S.E.D.K.L.L.A.C.G.E.G.A.A.D.I.I.I.G.H.L.C.I.R.H.E.M.T.P.V.N.P.G.V}$PEPTIDE1,PEPTIDE1,9:R3-22:R3$$$V2.0; N-terminus and C-terminus assumed), the “mRNA levels of CDK2, CDK4, CDK6, Cyclin D1, CCND3, RB1” value in assay [1] (1×10^−7 M, 24 or 48 hours) is listed as “did not result in significant changes in mRNA levels”. Besides, in assay [1] (8 days), the “Cyclin D1 mRNA, fold increase” value was found to be 1.71 fold. The “Ki67, cdk2, cdk6, and Cyclin B1 mRNA levels” value was “no effect” in assay [1] (8 days) and “little changes in mRNA expression levels” in assay [1] (8 days, listed as cyclic peptide). Besides, the “Rb1 mRNA, fold increase” value in assay [1] (8 days) is on record as 2.4 fold. In addition, in assay [1] (8 days), the “cdk4 mRNA, fold increase” value is 2.4 fold. Also, the “Expression of Cyclin D1, RB1 and CDK4” value in assay [1] (8 days, 0.1 nM (Cyclin D1 and RB1) or 1 pM (CDK4)) was “increased about two-fold”. For the same molecule, the “Cyclin-E mRNA, fold reduction” value in assay [1] (8 days, 10^−8 to 10^−12 M) is listed as 2.1 to 4.6 fold. For the same molecule, in assay [1] (8 days, each of the five concentrations tested), the “Expression levels of Cyclin E1” value was “greatly reduced”. Further, the “Cyclin E1 mRNA levels, Fold Decrease” value was 4.58 fold in assay [1] (concentration 1e−08 (10 nM)); 3.03 fold in assay [1] (concentration 1e−09); 2.07 fold in assay [1] (concentration 1e−10); 2.36 fold in assay [1] (concentration 1e−11); 3.26 fold in assay [1] (concentration 1e−12 (1 pM)).

Regarding “KDFIHKQGVALQTMKQELINLVKELVKPQIEAVADFSGLL (listed as Homo sapiens) [P192, reference compound]”, the “% Inhibition Of Activity: Platelet Agg. ADP” value in the assay on human platelets (ADP-induced) is recorded as 0%. Besides, the “% Inhibition Of Activity: Platelet Agg. AA” value in the assay on human platelets (arachidonic acid-induced) is listed as 0%. The “% Inhibition Of Activity: Platelet Agg. Coll” value in the assay with human platelets (collagen-induced) was 0%. Also, in the assay with human platelets (peptide inhibitors 30 & 100 μM), the “Inhibition (%) Of Platelet Aggregation, Adenosine Diphosphate (ADP) 2.5 μM” value is “No effect”; the “Inhibition (%) Of Platelet Aggregation, Arachidonic Acid (AA) 0.3 mM” value is listed as “No effect”; the “Inhibition (%) Of Platelet Aggregation, Collagen (COLL) 2 μg/ml” value was “No effect”; the “Inhibition (%) Of Platelet Aggregation, Epinephrine” value is reported as “No effect”. Further, the “% Inhibition Of Activity: Kidney tumor growth” value in assay [2] is 0%.
